# Assay results reported in paper PMC9781827, “Isolation and Identification of Anti-Inflammatory Peptide from Goose Blood Hydrolysate to Ameliorate LPS-Mediated Inflammation and Oxidative Stress in RAW264.7 Macrophages” (Molecules, 2022).
# Legend:
# Type in all cases: cell-based
# [1] = system: GSH-Px; assay: GSH-Px activity in LPS-mediated RAW264.7 macrophages; conditions: LPS alone; mean ± S.D., n = 3
# Procedure: The culture medium was collected and centrifuged at 3000× g for 10 min. Then, the inflammatory cytokines levels of TNF-α (MB-50051A), IL-1β (MB-50064B) and IL-6 (MB-50054A) in the culture medium were determined with ELISA kits (Jiangsu Enzyme marker Biotechnology Co., Ltd., Yancheng, China). […] (7) Add 50 μL of stop solution to each well, and measure its absorbance value at 450 nm wavelength. The activities of SOD, GSH-Px and the levels of ROS and Nitric oxide (NO) in macrophages were determined with spectrophotometric kits. […] The absorbance value of miscible liquid was measured at 450 nm wavelength by a multifunctional microplate reader; GSH-Px: 0.2 mL of sample was mixed with 0.2 mL GSH-Px (1 mmol/L) and performed at 37 °C for 5 min. […] The absorbance value was measured at 412 nm wavelength by a multifunctional microplate reader; ROS: DCFH-DA probe was added directly to serum-free medium: DCFH-DA was generally diluted with serum-free medium at a final concentration of 10 µM at 1:1000. […] In general, obvious green fluorescence can be observed in positive control cells after 20 min of stimulation. […] It can also be detected according to FITC fluorescence detection conditions. The results were expressed as fluorescence values.
# [2] = system: TLR4, CD14, MD-2, MyD88, p-NF-kB/NF-kB, IKKβ; assay: Western blot of TLR4, CD14, MD-2, MyD88, p-NF-kB/NF-kB, IKKβ in RAW264.7 macrophages; conditions: LPS group vs CTRL group, p < 0.05
# Procedure: (§1) RAW264.7 macrophages were washed with cold PBS and homogenized with two small magnetic beads (2 mm) and 10× volume of RIPA buffer containing 1% protease inhibitors for 60 s. Then the supernatant was collected after centrifuging at 12,000× g for 10 min at 4 °C, which was the total protein solution. The concentration of protein in the total protein solution was measured by BCA kits. The protein concentration of the supernatant was diluted to 2.0 mg/mL and mixed with an equal volume of buffer (0.25 mol/L Tris-HCl buffer, pH 6.8, containing 4% SDS and 20% glycerol with 20 mmol/L 2-mercaptoethanol). The stacking gel and separating gel were made of 5% (w/v) and 10% (w/v) polyacrylamide, respectively. Electrophoresis was carried out at 80 V until the dye front reached the bottom of the stacking gel, and the gel was run at 120 V until the dye front reached the bottom of the separating gel (165-8001, Bio-Rad Mini-PROTEAN Tetra Electrophoresis System). The PVDF membrane was covered on the gel and transferred membrane at 300 mA for 30 min. The membrane was moved into a decolorization shaker with 5% skim milk (0.5% TBST) and blocked for 1 h at room temperature. […] The film was scanned and archived, processed and decolorized by Photoshop, and the optical density value of the target band was analysed by ImageJ software processing system.
# [3] = system: Keap-1, NrF2, HO-1; assay: Western blot of Keap-1, NrF2, HO-1 in RAW264.7 macrophages; conditions: stimulation with LPS alone
# Procedure: as §1
substance,measurement,setting,value
lipopolysaccharide [LPS],level of GSH-Px,[1],44.63 ± 2.72 U/mg prot
same,"protein expression levels of TLR4, CD14, MD2, MyD88, p-NF-kB, NF-kB and IKKβ",[2],elevated
same,protein expression level of Keap-1,[3],significantly increased
same,protein expression levels of NrF2 and HO-1,[3],decreased
